Experimental data published in article PMC9272661 (Antiviral Research, 2022).

Experiments:
SARS-CoV-2 3CLpro [1] = target: T1, SARS-CoV-2 3CLpro (Severe acute respiratory syndrome coronavirus 2, UniProt P0DTD1); test: Enzyme kinetics, Lineweaver-Burk plots; assay type: biochemical; details: 200 nM 3CLpro, inhibitor 5 μM or 10 μM
SARS-CoV-2 3CLpro [2] = target: T1, SARS-CoV-2 3CLpro; test: Inhibition of cleavage of TriPro substrate protein; assay type: biochemical; details: 0.8 μM 3CLpro, 1 h preincubation, SDS-PAGE
SARS-CoV-2 3CLpro [3] = target: T1, SARS-CoV-2 3CLpro; test: Surface plasmon resonance binding to immobilized 3CLpro; details: 0.164-100 μM, 25 °C, n = 3
SARS-CoV-2 3CLpro [4] = target: T1, SARS-CoV-2 3CLpro; test: FRET-based enzymatic assay of 3CLpro; assay type: biochemical; details: at 50 μM concentration

Compound	Inhibition Type (SARS-CoV-2 3CLpro [1])	Inhibition of cleavage of TriPro substrate protein (SARS-CoV-2 3CLpro [2])	KD (SPR, steady-state affinity model) (SARS-CoV-2 3CLpro [3])	Inhibitory activity against SARS-CoV-2 3CLpro (SARS-CoV-2 3CLpro [4])
Cl.NCCOc1ccc(Cl)cc1C(=O)NCC(=O)Nc1ccc([N+](=O)[O-])cc1Cl [JMX0286, 2-(2-Aminoethoxy)-5-chloro-N-(2-((2-chloro-4-nitrophenyl)amino)-2-oxoethyl)benzamide hydrochloride]	Non-competitive	inhibited the cleavage of the TriPro substrate protein in a dose dependent manner		
CC(C)(C)OC(=O)NCCOc1ccc(Cl)cc1C(=O)NCC(=O)Nc1ccc([N+](=O)[O-])cc1Cl [JMX0301, Tert-Butyl (2-(4-chloro-2-((2-((2-chloro-4-nitrophenyl)amino)-2-oxoethyl)carbamoyl)phenoxy)ethyl)carbamate]	Non-competitive	inhibited the cleavage of the TriPro substrate protein in a dose dependent manner	did not show binding	
O=C(Nc1ccc([N+](=O)[O-])cc1Cl)c1cc(Cl)ccc1O [niclosamide]				does not inhibit
